“And” between values parts separate entries of the source, which are not always exact repeats. Identical values can stand only once. Inconclusive results and toxic doses are left out.

The values that follow come from PubChem BioAssay AID256 (DTP/NCI, 2004).

This assay concerns CD2F1 mice, L1210 leukemia ip, survival T/C. Put plainly: NCI In Vivo Anticancer Drug Screen. Data for tumor model L1210 Leukemia (intraperitoneal) in CD2F1 (CDF1) mice. The note with it: endpoint: mean survival time, higher = longer survival. In a few lines: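 Implant tumor; dose compound or vehicle; measure endpoint in both groups; report treated divided by control.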
The mark [1] stands for this setting: dose: 100.0 mg/kg/injection, schedule: Q01DX001 (ip), vehicle: saline with Tween-80.
[2] abbreviates: dose: 200.0 mg/kg/injection, schedule: Q01DX001 (ip), vehicle: saline with Tween-80.
The mark [3] stands for this setting: dose: 400.0 mg/kg/injection, schedule: Q01DX001 (ip), vehicle: saline with Tween-80.
Setting [4] is: dose: 100.0 mg/kg/injection, schedule: Q01DX009 (ip), vehicle: saline with Tween-80.
The mark [5] stands for this setting: dose: 100.0 mg/kg/injection, schedule: Q04DX003 (ip), vehicle: saline with Tween-80.
The mark [6] stands for this setting: dose: 200.0 mg/kg/injection, schedule: Q01DX009 (ip), vehicle: saline with Tween-80.
Where [7] appears, read: dose: 200.0 mg/kg/injection, schedule: Q04DX003 (ip), vehicle: saline with Tween-80.
[8] abbreviates: dose: 400.0 mg/kg/injection, schedule: Q01DX009 (ip), vehicle: saline with Tween-80.

`NNC(=O)CCCCCC/C=C/CCCCCCCO`: the T/C is, setting by setting: (dose: 50.0 mg/kg/injection, schedule: Q01DX001 (ip), vehicle: saline with Tween-80) 98 % of control; under setting [1], 108 % of control; under setting [2], 101 % of control.
Consider `CC(C)C1C(O)C23CCC4C(C)(CO)CCCC4(C)C2CC13` (stereo not given), for which the T/C reads like this: under setting [1], 96 % of control; under setting [2], 94 % of control; under setting [3], 94 % of control.
For the compound `Nn1c(=O)[nH][nH]c1=O`, the T/C reads like this: under setting [4], 96 % of control; under setting [5], 93 % of control; under setting [6], 96 % of control; under setting [7], 93 % of control; under setting [8], 98 % of control; (dose: 400.0 mg/kg/injection, schedule: Q04DX003 (ip), vehicle: saline with Tween-80) 98 % of control.
Regarding `NNC(=O)c1ccc(O)cc1`, the T/C under setting [1] is 90 % of control, the T/C under setting [2] was 94 % of control and the T/C under setting [3] is 96 % of control.
Take `CC(=O)OC1CCC2(C)C(=C(C)CC3C2CCC2(C)C(C(C)=O)CCC32)C1` (stereo not given): the T/C under setting [4] is 98 % of control, the T/C under setting [6] was 95 % of control and the T/C under setting [8] is 97 % of control.
Consider `O=C(/C=C/c1ccc(Cl)cc1)/C=C/c1ccc(Cl)cc1`, for which the T/C was 94 % of control (dose: 50.0 mg/kg/injection, schedule: Q01DX009 (ip), vehicle: Klucel (hydroxypropylcellulose) (HPC)); 98 % of control (dose: 100.0 mg/kg/injection, schedule: Q01DX009 (ip), vehicle: Klucel (hydroxypropylcellulose) (HPC)); 94 % of control (dose: 200.0 mg/kg/injection, schedule: Q01DX009 (ip), vehicle: Klucel (hydroxypropylcellulose) (HPC)).
As to `O/N=C/c1ccccn1`, the T/C was 96 % of control (dose: 75.0 mg/kg/injection, schedule: Q04DX003 (ip), vehicle: saline with Tween-80); 104 % of control (dose: 150.0 mg/kg/injection, schedule: Q04DX003 (ip), vehicle: saline with Tween-80); 98 % of control (dose: 300.0 mg/kg/injection, schedule: Q04DX003 (ip), vehicle: saline with Tween-80).
Consider `CCOC(=O)C1C(=O)N(c2ccccc2)C(=O)N1Cc1ccccc1` (stereo not given), for which the T/C was 98 % of control (dose: 12.5 mg/kg/injection, schedule: Q01DX009 (ip), vehicle: other); 98 % of control (dose: 25.0 mg/kg/injection, schedule: Q01DX009 (ip), vehicle: other); 97 % of control (dose: 50.0 mg/kg/injection, schedule: Q01DX009 (ip), vehicle: other); 95 % of control (dose: 100.0 mg/kg/injection, schedule: Q01DX009 (ip), vehicle: other); 86 % of control (dose: 200.0 mg/kg/injection, schedule: Q01DX009 (ip), vehicle: other).
With `CCCC[As](=O)(O)C(C)C`, the T/C was 93 % of control (dose: 2.7 mg/kg/injection, schedule: Q01DX009 (ip), vehicle: saline); 102 % of control (dose: 4.1 mg/kg/injection, schedule: Q01DX009 (ip), vehicle: saline); 100 % of control (dose: 5.5 mg/kg/injection, schedule: Q04DX003 (ip), vehicle: saline); 104 % of control (dose: 6.25 mg/kg/injection, schedule: Q01DX009 (ip), vehicle: saline); 104 % of control (dose: 8.2 mg/kg/injection, schedule: Q04DX003 (ip), vehicle: saline); 100 % of control (dose: 9.3 mg/kg/injection, schedule: Q01DX009 (ip), vehicle: saline). Moreover, the T/C (dose: 11.0 mg/kg/injection, schedule: Q04DX002 (ip), vehicle: saline) was 106 % of control; the T/C (dose: 12.5 mg/kg/injection, schedule: Q04DX003 (ip), vehicle: saline) was 104 % of control; the T/C (dose: 14.0 mg/kg/injection, schedule: Q01DX009 (ip), vehicle: saline) is 93 % of control; the T/C (dose: 16.0 mg/kg/injection, schedule: Q04DX002 (ip), vehicle: saline) is 113 % of control; the T/C (dose: 18.0 mg/kg/injection, schedule: Q04DX003 (ip), vehicle: saline) was 100 % of control; the T/C (dose: 22.0 mg/kg/injection, schedule: Q01DX001 (ip), vehicle: saline) is 104 % of control. Further, the T/C by setting is: (dose: 25.0 mg/kg/injection, schedule: Q04DX002 (ip), vehicle: saline) 100 % of control; (dose: 28.0 mg/kg/injection, schedule: Q04DX003 (ip), vehicle: saline) 102 % of control; (dose: 35.0 mg/kg/injection, schedule: Q01DX001 (ip), vehicle: saline) 102 % of control; (dose: 35.0 mg/kg/injection, schedule: Q04DX002 (ip), vehicle: saline) 111 % of control; (dose: 50.0 mg/kg/injection, schedule: Q01DX001 (ip), vehicle: saline) 104 % of control; (dose: 55.0 mg/kg/injection, schedule: Q04DX002 (ip), vehicle: saline) 95 % of control. Besides, the T/C (dose: 75.0 mg/kg/injection, schedule: Q01DX001 (ip), vehicle: saline) was 111 % of control.
As to `CCCCCCCCCCCCCCCCCC(=O)OCC(=O)OCC(=O)[C@]1(O)Cc2c(O)c3c(c(O)c2[C@@H](OC2CC(N)C(O)C(C)O2)C1)C(=O)c1c(OC)cccc1C3=O` (stereo not given in full), the T/C runs as follows: (dose: 0.37 mg/kg/injection, schedule: Q01DX009 (ip), vehicle: saline) 116 % of control; (dose: 0.39 mg/kg/injection, schedule: Q01DX005 (ip), vehicle: water) 122 % of control and 112 % of control; (dose: 0.75 mg/kg/injection, schedule: Q01DX009 (ip), vehicle: saline) 115 % of control; (dose: 0.78 mg/kg/injection, schedule: Q01DX005 (ip), vehicle: water) 118 % of control and 119 % of control; (dose: 1.5 mg/kg/injection, schedule: Q01DX009 (ip), vehicle: saline) 115 % of control; (dose: 3.13 mg/kg/injection, schedule: Q01DX005 (ip), vehicle: other) 152 % of control. The T/C is 209 % of control (dose: 3.13 mg/kg/injection, schedule: Q01DX005 (ip), vehicle: water); 156 % of control (dose: 6.25 mg/kg/injection, schedule: Q01DX005 (ip), vehicle: other); 124 % of control (dose: 6.25 mg/kg/injection, schedule: Q01DX005 (ip), vehicle: water); 157 % of control (dose: 12.0 mg/kg/injection, schedule: Q01DX009 (ip), vehicle: saline); 90 % of control (dose: 12.5 mg/kg/injection, schedule: Q01DX005 (ip), vehicle: other).
For the compound `C/C=C(\C)C(=O)O[C@@H]1c2cc3c(cc2-c2c(cc(OC)c(OC)c2OC)[C@@H]2C(=O)OC[C@@H]12)OCO3`, the T/C is, setting by setting: (dose: 1.25 mg/kg/injection, schedule: Q01DX009 (ip), vehicle: Klucel (hydroxypropylcellulose) (HPC)) 112 % of control; (dose: 2.5 mg/kg/injection, schedule: Q01DX009 (ip), vehicle: Klucel (hydroxypropylcellulose) (HPC)) 106 % of control; (dose: 5.0 mg/kg/injection, schedule: Q01DX009 (ip), vehicle: Klucel (hydroxypropylcellulose) (HPC)) 106 % of control; (dose: 10.0 mg/kg/injection, schedule: Q01DX009 (ip), vehicle: Klucel (hydroxypropylcellulose) (HPC)) 95 % of control.
On to `O/N=C/c1ccc(O)cc1`, for which the T/C was 94 % of control (dose: 50.0 mg/kg/injection, schedule: Q04DX003 (ip), vehicle: saline with Tween-80); 91 % of control under setting [5]; 97 % of control under setting [7].
Consider `CC(CN=Cc1ccccc1N)N=Cc1ccccc1N` (stereo not given), for which the T/C (dose: 50.0 mg/kg/injection, schedule: Q04DX002 (ip), vehicle: saline with Tween-80) was 93 % of control; the T/C (dose: 100.0 mg/kg/injection, schedule: Q04DX002 (ip), vehicle: saline with Tween-80) was 97 % of control; the T/C (dose: 200.0 mg/kg/injection, schedule: Q04DX002 (ip), vehicle: saline with Tween-80) was 97 % of control; the T/C (dose: 400.0 mg/kg/injection, schedule: Q04DX002 (ip), vehicle: saline with Tween-80) was 113 % of control.
Consider `C[CH2][Sn]1([CH2]C)[O]OC(c2ccccc2)[O]1` (stereo not given), for which the T/C (dose: 0.78 mg/kg/injection, schedule: Q01DX009 (ip), vehicle: saline with Tween-80) is 106 % of control; the T/C (dose: 1.56 mg/kg/injection, schedule: Q01DX009 (ip), vehicle: saline with Tween-80) was 96 % of control; the T/C (dose: 3.12 mg/kg/injection, schedule: Q01DX009 (ip), vehicle: saline with Tween-80) is 98 % of control; the T/C (dose: 6.25 mg/kg/injection, schedule: Q01DX009 (ip), vehicle: saline with Tween-80) was 106 % of control; the T/C (dose: 12.5 mg/kg/injection, schedule: Q01DX009 (ip), vehicle: saline with Tween-80) was 112 % of control.
